Measurements from patent US6987112B2, “Organic compound having cyano group and insecticides/miticides” (Nippon Soda Co., Ltd., priority 2000, dated 2006).
Like-named read-outs stand apart in the source and are kept apart here.

Assays:
Cotton Aphids = test: Efficacy on cotton aphids (spray on 1st instar nymphs on cucumber leaves); format: in vivo; settings: 125 ppm spray, 25° C., 65% RH, five days later, duplicate
[1] = system: susceptible Citrus red mite; test: Effects on Citrus red mite (spray on adult females on Citrus leaf in Petri dish); format: in vivo; settings: Panonychus citri, read-out: percentage mortality
Method: Eight adult females of susceptible Citrus red mite were inoculated on the surface of Citrus leaf placed in a glass Petridish. […] The solution was sprayed on the mites using a rotary spraying tower up to the fixed volume. […] The test was carried out in duplicate.

Cn1nc(C(F)(F)F)c(C(OC(=O)C(C)(C)C)=C(C#N)Oc2ccc(Cl)cc2)c1Cl [Compound No. 3-9, β-(5-chloro-1-methyl-3-trifluoromethylpyrazole-4-yl)-α-(4-chlorophenoxy)-β-pivaloyloxyacrylonitrile]
mortality at 125 ppm (Cotton Aphids; 120 h, read-out: percentage mortality): 100% | mortality at 125 ppm ([1]; 125 ppm spray (wettable powder), adult females on Citrus leaf, 25° C., 65% RH, third day after spraying, duplicate): 100%

Cc1nc(N(C)C)nc(OC(=O)N(C)C)c1C [pyrimicarb]
percentage mortality (Cotton Aphids): 9%

Cc1cc(Cl)ccc1N=CN(C)C [chlordimeform]
mortality at 125 ppm [1]: 13%
